Experimental data: ChEMBL document CHEMBL1143441, “New classes of Gram-positive selective antibacterials: inhibitors of MRSA and surrogates of the causative agents of anthrax and tuberculosis” (2008)
≈ marks a conversion by molar mass, not a printed value.

Test system: Mycobacterium tuberculosis
Experiment: Antimicrobial activity against Mycobacterium bovis BCG by NCCLS M7-A6 method
Format: functional
Conditions: variant bovis BCG

COc1cc(O)cc(/C=C/c2ccccc2)c1 [PINOSYLVIN METHYL ETHER]
MIC: 26 µg/mL (≈ 115 µM)
